Like-named read-outs stand apart in the source and are kept apart here.
Columns and labels:
[1] = Porcine-PK study of BuMA Supreme stent (blood, myocardium, coronary artery tissue); type: in vivo, Yucatan Miniature Swine
Description: Release of drug from the stent and local, regional, and systemic delivery of sirolimus/rapamycin was quantified by measuring the drug content in stented coronary artery segments. Drug remaining on the stent and found in tissue was measured at 1, 3, 7, 14, 21, 28, […], 90, and 150 day time points. Stents were implanted into Yucatan Miniature Swine pigs. The porcine and human arteries have correlatively similar anatomy and the porcine model is recommended for use in preclinical studies by the FDA, EMEA and Schwartz et al. Thirty-one Yucatan mini-swine were implanted in two of three coronary arteries: the left circumflex artery [LCx], left anterior descending artery [LAD] and right coronary artery [RCA] of each animal, when possible.
Pharmacokinetic analysis was performed for both Rabbit-PK (2014-002) and Porcine-PK (1792-318G) studies, using whole blood, target tissue, and non-target tissue concentration versus time data, using Phoenix WinNonlin (version 8.1) non-compartment analysis function (linear trapezoidal rule for AUC calculations). Nominal dose values and sampling times were used for calculations. Any concentration reported as BLQ (LLOQ<0.100 ng/mL) was set equal to zero. Time points were manually evaluated for the determination of lambda z (R2>0.75), the elimination rate constant, upon which half-life (t1/2) was based.
For the rabbit and porcine study, pharmacokinetic analyses included Cmax, Tmax, Tlast, AUC0-24, AUClast, t1/2, and MRTlast and is presented in Table 2. Below.

[2] = as above; type: in vivo, Yucatan Miniature Swine; conditions: for concentration at 60 days: Yucatan miniature swine, pig, coronary artery, stented segment, other: drug-eluting stent implanted in coronary arteries

- concentration at 1 days ([1]; Yucatan miniature swine, pig, coronary artery, stented segment, other: drug-eluting stent implanted in coronary arteries, study day 1, BuMA Supreme stent, porcine, read-out: Arterial drug concentration): 1630 ± 239 ng/g
- concentration at 3 days ([1]; Yucatan miniature swine, pig, coronary artery, stented segment, other: drug-eluting stent implanted in coronary arteries, study day 3, read-out: Arterial drug concentration): 2270 ± 735 ng/g
- concentration at 7 days ([1]; Yucatan miniature swine, pig, coronary artery, stented segment, other: drug-eluting stent implanted in coronary arteries, study day 7, read-out: Arterial drug concentration): 2580 ± 1430 ng/g
- concentration at 14 days ([1]; Yucatan miniature swine, pig, coronary artery, stented segment, other: drug-eluting stent implanted in coronary arteries, study day 14, read-out: Arterial drug concentration): 3700 ± 1710 ng/g
- concentration at 21 days ([1]; Yucatan miniature swine, pig, coronary artery, stented segment, other: drug-eluting stent implanted in coronary arteries, study day 21, read-out: Arterial drug concentration): 9850 ± 4720 ng/g
- concentration at 28 days ([1]; Yucatan miniature swine, pig, coronary artery, stented segment, other: drug-eluting stent implanted in coronary arteries, study day 28, read-out: Arterial drug concentration): 6780 ± 4140 ng/g
- concentration at 90 days ([1]; Yucatan miniature swine, pig, coronary artery, stented segment, other: drug-eluting stent implanted in coronary arteries, study day 90, read-out: Arterial drug concentration): 451 ± 188 ng/g
- concentration at 150 days ([1]; Yucatan miniature swine, pig, coronary artery, stented segment, other: drug-eluting stent implanted in coronary arteries, study day 150, read-out: Arterial drug concentration): 109 ± 12.1 ng/g
- time at which maximum concentration of the drug in the artery occurred ([1]; after implantation, stented area): 21 days
- maximum concentration of the drug in the artery (stented area) ([1]; average, 21 days after implantation, porcine coronary artery, BuMA Supreme stent): 9.85±4.72 μg/gm
- drug concentration in artery segments proximal and distal to the stented segment, relative to the stented segment value ([1]; in vivo): 3-11%
- concentration at 60 days ([2]; by 60 days, read-out: concentration of the drug in the artery (stented area)): 920 ± 200 ng/g
- concentration at 60 days ([2]; study day 60, read-out: Arterial drug concentration): 922 ± 203 ng/g
- samples with measurable drug levels in the artery ([2]; at 154 and 202 days): five of the twelve
Compound: CO[C@H]1C[C@@H]2CC[C@@H](C)[C@@](O)(O2)C(=O)C(=O)N2CCCC[C@H]2C(=O)O[C@H]([C@H](C)C[C@@H]2CC[C@@H](O)[C@H](OC)C2)CC(=O)[C@H](C)/C=C(\C)[C@@H](O)[C@@H](OC)C(=O)[C@H](C)C[C@H](C)/C=C/C=C/C=C/1C [Rapamycin, Sirolimus (rapamycin)]
